Measurements as given in patent US11976083B2, “Inhibitors of peptidylarginine deiminases” (Gilead Sciences, Inc., priority 2020, dated 2024).

Biological target: T1, human PAD4 (Homo sapiens, UniProt Q9UM07)
T1 construct: human PAD4 (NM_012387), A2-P663, was PCR amplified; His-SUMO (N, cleaved yes); made in house; host or cells: E. coli BL21(DE3)
Test: In vitro PAD4 BAEE biochemical assay
Settings: BAEE substrate 3 mM, 5 nM PAD4, 2 mM calcium chloride; geometric mean of multiple experiments
In short: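 PAD4 5 nM, CaCl2 2 mM, BAEE 3 mM final; 50 mM MOPS pH 7.6, 50 mM NaCl, 0.05% Tween-20, 2 mM DTT. Cpd + enzyme 30 min 25 °C; substrate 2 h 25 °C; EDTA stop; OPA detection 1 h. IC50 4-parameter fit.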

T1 sequence (Q9UM07 2-663): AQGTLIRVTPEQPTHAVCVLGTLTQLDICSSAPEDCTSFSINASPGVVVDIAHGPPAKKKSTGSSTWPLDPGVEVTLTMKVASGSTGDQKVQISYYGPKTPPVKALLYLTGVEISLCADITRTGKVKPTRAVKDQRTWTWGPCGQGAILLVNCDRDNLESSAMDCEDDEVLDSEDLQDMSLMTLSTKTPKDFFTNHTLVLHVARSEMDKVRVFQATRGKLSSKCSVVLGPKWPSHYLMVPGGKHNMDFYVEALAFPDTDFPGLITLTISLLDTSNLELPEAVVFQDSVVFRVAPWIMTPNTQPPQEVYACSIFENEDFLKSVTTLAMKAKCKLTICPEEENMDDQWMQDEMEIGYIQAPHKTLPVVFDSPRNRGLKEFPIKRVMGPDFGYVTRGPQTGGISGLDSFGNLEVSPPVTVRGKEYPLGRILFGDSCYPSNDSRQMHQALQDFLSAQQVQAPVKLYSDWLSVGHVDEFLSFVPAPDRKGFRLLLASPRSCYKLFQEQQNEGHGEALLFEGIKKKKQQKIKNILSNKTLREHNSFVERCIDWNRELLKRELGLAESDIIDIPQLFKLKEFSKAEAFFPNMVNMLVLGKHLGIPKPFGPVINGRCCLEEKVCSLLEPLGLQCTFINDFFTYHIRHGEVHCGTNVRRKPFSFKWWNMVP

Compound `C[C@H]1NC(=O)C(C)(C)CCCCCCn2c(-c3nc4cc(C(=O)N[C@H]5CNCC[C@@H]5F)c(F)cc4n3CC(F)(F)F)cc3ccc1nc32` [Example 419, 6-fluoro-~{N}-[(3~{S},4~{S})-4-fluoro-3-piperidyl]-1-(2,2,2-trifluoroethyl)-2-[(11~{R})-8,8,11-trimethyl-9-oxo-1,10,19-triazatricyclo[10.5.2.0^{15,18}]nonadeca-12(19),13,15(18),16-tetraen-17-yl]benzimidazole-5-carboxamide] has an IC50 of 0.37 µM.

`C[C@H]1NC(=O)C(C)(C)CCCCCCn2c(-c3nc4cc(C(=O)N[C@H]5CNCC[C@@H]5F)c(F)cc4n3C3CCC3)cc3ccc1nc32` [Example 420, 1-cyclobutyl-6-fluoro-˜{N}-[(3˜{S},4˜{S})-4-fluoro-3-piperidyl]-2-[(11˜{R})-8,8,11-trimethyl-9-oxo-1,10,19-triazatricyclo[10.5.2.0^{15,18}]nonadeca-12(19),13,15(18),16-tetraen-17-yl]benzimidazole-5-carboxamide] was tested, and the IC50 was 0.184 µM.

Compound `CC(C)n1c(-c2cc3ccc4nc3n2CCCCCCC(C)(C)C(=O)N[C@@H]4C)nc2cc(C(=O)N[C@H]3CNCC[C@@H]3F)c(F)cc21` [Example 421, 6-fluoro-~{N}-[(3~{S),4~{S})-4-fluoro-3-piperidyl]-1-isopropyl-2-[(11~{R})-8,8,11-trimethyl-9-oxo-1,10,19-triazatricyclo[10.5.2.0^{15,18}]nonadeca-12(19),13,15(18),16-tetraen-17-yl]benzimidazole-5-carboxamide] has an IC50 of 0.304 µM.

With `COCCn1c(-c2cc3ccc4nc3n2CCCCC[C@@H]2C[C@H]2C(=O)N[C@@H]4C)nc2cc(C(=O)N[C@H]3CNCC[C@@H]3F)c(F)cc21` [Example 422, 6-fluoro-~{N}-[(4~{S})-4-fluoro-3-piperidyl]-1-(2-methoxyethyl)-2-[(2~{R},5~{R},7~{R})-2-methyl-4-oxo-3,13,19-triazatetracyclo[11.5.2.0^{5,7}.0^{16,20}]icosa-1(18),14,16,19-tetraen-14-yl]benzimidazole-5-carboxamide] the IC50 was 0.039 µM.

`CCn1c(-c2cc3ccc4nc3n2CCCCCCC(C)(C)C(=O)N[C@@H]4C)nc2cc(C(=O)N[C@H]3CNCC[C@@H]3F)c(F)cc21` [Example 423, 1-ethyl-6-fluoro-~{N}-[(3~{S},4~{S})-4-fluoro-3-piperidyl]-2-[(11~{R})-8,8,11-trimethyl-9-oxo-1,10,19-triazatricyclo[10.5.2.0^{15,18}]nonadeca-12(19),13,15(18),16-tetraen-17-yl]benzimidazole-5-carboxamide] gave an IC50 of 0.064 µM.

Compound `CC(C)OCCn1c(-c2cc3ccc4nc3n2CCCCCCC(C)(C)C(=O)N[C@@H]4C)nc2cc(C(=O)N[C@H]3CNCC[C@@H]3F)c(F)cc21` [Example 424, 6-fluoro-~{N}-[(3~{S},4~{S})-4-fluoro-3-piperidyl]-1-(2-isopropoxyethyl)-2-[(11~{R})-8,8,11-trimethyl-9-oxo-1,10,19-triazatricyclo[10.5.2.0^{15,18}]nonadeca-12(19),13,15(18),16-tetraen-17-yl]benzimidazole-5-carboxamide] has an IC50 of 0.111 µM.

`CCOCCn1c(-c2cc3ccc4nc3n2CCCCCCC(C)(C)C(=O)N[C@@H]4C)nc2cc(C(=O)N[C@H]3CNCC[C@@H]3F)c(F)cc21` [Example 425, 1-(2-ethoxyethyl)-6-fluoro-~{N}-[(3~{S},4~{S})-4-fluoro-3-piperidyl]-2-[(11~{R})-8,8,11-trimethyl-9-oxo-1,10,19-triazatricyclo[10.5.2.0^{15,18}]nonadeca-12(19),13,15(18),16-tetraen-17-yl]benzimidazole-5-carboxamide] showed an IC50 of 0.104 µM.

With `C[C@H]1NC(=O)[C@@H]2C[C@H]2CCCCCn2c(-c3nc4cc(C(=O)N[C@H]5CNCC[C@@H]5F)c(F)cc4n3CCC#N)cc3ccc1nc32` [Example 426, 1-(2-cyanoethyl)-6-fluoro-~{N}-[(3~{S},4~{S})-4-fluoro-3-piperidyl]-2-[(2~{R},5~{R},7~{R})-2-methyl-4-oxo-3,13,19-triazatetracyclo[11.5.2.0^{5,7}.0^{16,20}]icosa-1(19),14,16(20),17-tetraen-14-yl]benzimidazole-5-carboxamide] the IC50 was 0.025 µM.

`COCCOCCn1c(-c2cc3ccc4nc3n2CCCCC[C@@H]2C[C@H]2C(=O)N[C@@H]4C)nc2cc(C(=O)N[C@H]3CNCC[C@@H]3F)c(F)cc21` [Example 427, 6-fluoro-~{N}-[(3~{S),4~{S})-4-fluoro-3-piperidyl]-1-[2-(2-methoxyethoxy)ethyl]-2-[(2~{R},5~{R},7~{R})-2-methyl-4-oxo-3,13,19-triazatetracyclo[11.5.2.0^{5,7}.0^{16,20}]icosa-1(19),14,16(20),17-tetraen-14-yl]benzimidazole-5-carboxamide] was tested, and the IC50 was 0.054 µM.

Work on `C[C@H]1NC(=O)[C@@H]2C[C@H]2CCCCCn2c(-c3nc4cc(C(=O)N[C@H]5CNCC[C@@H]5F)c(F)cc4n3CCC(N)=O)cc3ccc1nc32` [Example 428, 1-(3-amino-3-oxo-propyl)-6-fluoro-~ {N}-[(3~{S},4~{S})-4-fluoro-3-piperidyl]-2-[(2~{R},5~{R},7~{R})-2-methyl-4-oxo-3,13,19-triazatetracyclo[11.5.2.0^{5,7}.0^{16,20}]icosa-1(19),14,16(20),17-tetraen-14-yl]benzimidazole-5-carboxamide] yielded an IC50 of 0.029 µM.

Work on `C[C@H]1NC(=O)[C@@H]2C[C@H]2CCCCCn2c(-c3nc4cc(C(=O)N[C@H]5CNCC[C@@H]5F)c(F)cc4n3CCOc3ccccc3)cc3ccc1nc32` [Example 429] yielded an IC50 of 0.068 µM.

Work on `COC(C)Cn1c(-c2cc3ccc4nc3n2CCCCC[C@@H]2C[C@H]2C(=O)N[C@@H]4C)nc2cc(C(=O)N[C@H]3CNCC[C@@H]3F)c(F)cc21` (some centres unmarked) [Example 430, 6-fluoro-~{N}-[(3~{S},4~{S})-4-fluoro-3-piperidyl]-1-(2-methoxypropyl)-2-[(2~{R},5~{R},7~{R})-2-methyl-4-oxo-3,13,19-triazatetracyclo[11.5.2.0^{5,7}.0^{16,20}]icosa-1(19),14,16(20),17-tetraen-14-yl]benzimidazole-5-carboxamide] yielded an IC50 of 0.044 µM.

`COCCn1c(-c2cc3ccc4nc3n2CCCCC[C@@H]2C[C@H]2C(=O)N[C@@H]4C)nc2cc(C(=O)N[C@H]3CNCC[C@@H]3F)cc(OC)c21` [Example 431, ~{N}-[(3~{S},4~{S})-4-fluoro-3-piperidyl]-7-methoxy-1-(2-methoxyethyl)-2-[(2~{R},5~{R},7~{R})-2-methyl-4-oxo-3,13,19-triazatetracyclo[11.5.2.0^{5,7}.0^{16,20}]icosa-1(19),14,16(20),17-tetraen-14-yl]benzimidazole-5-carboxamide] showed an IC50 of 0.041 µM.

`COCCn1c(-c2cc3ccc4nc3n2CCCCC[C@@H]2C[C@H]2C(=O)N[C@@H]4C)nc2cc(C(=O)N3CC[C@@H](OC)[C@@H](N)C3)cc(OC)c21` [Example 432, (2~{R},5~{R},7~{R})-14-[5-[(3~{S},4~{R})-3-amino-4-methoxy-piperidine-1-carbonyl]-7-methoxy-1-(2-methoxyethyl)benzimidazol-2-yl]-2-methyl-3,13,19-triazatetracyclo[11.5.2.0^{5,7}.0^{16,20}] icosa-1(19),14,16(20),17-tetraen-4-one] showed an IC50 of 0.161 µM.
